From PubChem BioAssay AID1117337 (Cheminformatics & Chemogenomics Research Group (CCRG), …, 2015)
Active and inactive are the calls of the source. How the calls were made is not given here. Where a SMILES comes first, the peptide text is derived from it.

These compounds were tested on ADSC/ECFC co-culture, VEGF-stimulated, CD31 tube area (assay: ADSC/ECFC co-culture angiogenesis inhibition – imaging, VEGF stimulation, CD31 staining, tube area, IC50, dose response (AID 1117337)).

For COc1ccc(Cc2nccc3cc(OC)c(OC)cc23)cc1OC, which IC50 is on record?
The IC50 was 7.8 µM (inactive).

How did the IC50 turn out when COc1ccc(CCN2CCC(Nc3nc4ccccc4n3Cc3ccc(F)cc3)CC2)cc1 was run?
Its IC50 is > 10 µM (inactive).

Which IC50 does the source give for CCCCC[C@@H](O)CC[C@H]1[C@@H]2Cc3cccc(OCC(=O)O)c3C[C@@H]2C[C@@H]1O here?
Its IC50 is > 10 µM (inactive).

How did the IC50 turn out when CC(CC=O)CCCC(C)(C)O (stereo not given) was run?
The IC50 was > 10 µM (inactive).

For CC(=O)c1ccc(OCC(=O)N2CCCCC2)cc1, which IC50 is on record?
The IC50 was > 10 µM (inactive).

Which IC50 does the source give for CN(C)CCCN1c2ccccc2Sc2ccc(Cl)cc21 here?
The IC50 was > 10 µM (inactive).

With Oc1cc(Cl)ccc1Oc1ccc(Cl)cc1Cl as the compound, how does the IC50 read?
Its IC50 is > 10 µM (inactive).

Which IC50 does the source give for O=C1NCN(c2ccccc2)C12CCN(CCCC(c1ccc(F)cc1)c1ccc(F)cc1)CC2 here?
Its IC50 is > 10 µM (inactive).

COc1cc([C@@H]2c3cc4c(cc3[C@H](O)[C@H]3COC(=O)[C@H]23)OCO4)cc(OC)c1OC was tested. Which IC50 did it give?
The IC50 was 0.0081 µM.

How did the IC50 turn out when COC(=O)CCCCC(CCSS/C(CCO)=C(\C)N(C=O)Cc1cnc(C)nc1N)SC(C)=O (stereo not given) was run?
Its IC50 is > 10 µM (inactive).

How did the IC50 turn out when Cc1cc(OCCOCC[N+](C)(C)Cc2ccccc2)ccc1C(C)(C)CC(C)(C)C was run?
Its IC50 is > 10 µM (inactive).

With COc1ccc2c(c1)c1c3n2CCN(C)C3=NCC1 as the compound, how does the IC50 read?
The IC50 was > 10 µM (inactive).

NC(=O)[C@@H]1CSSCCC(=O)N[C@@H](CCCCN=C(N)N)C(=O)NCC(=O)N[C@@H](CC(=O)O)C(=O)N[C@@H](Cc2c[nH]c3ccccc23)C(=O)N2CCC[C@H]2C(=O)N1 (HELM PEPTIDE1{[O=C(CCS[*:3])[*:2]].[N=C(N)NCCCC[C@H](N[*:1])C(=O)[*:2]].G.D.W.P.C.[am]}$PEPTIDE1,PEPTIDE1,1:R3-7:R3$$$V2.0) was tested. Which IC50 did it give?
The IC50 was > 10 µM (inactive).

With CN1CCCC(CC2c3ccccc3Sc3ccccc32)C1 (stereo not given) as the compound, how does the IC50 read?
Its IC50 is 8.68 µM (inactive).

How did the IC50 turn out when OC[C@H]1O[C@@H](n2cnc3c(=S)nc[nH]c32)[C@H](O)[C@@H]1O was run?
The IC50 was 1.42 µM.

For CC1=C(C(=O)OC(C)C)C(c2cccc([N+](=O)[O-])c2)C(C(=O)OC2CN(C(c3ccccc3)c3ccccc3)C2)=C(N)N1 (stereo not given), which IC50 is on record?
The IC50 was 3.58 µM.

How did the IC50 turn out when CCCCCCCCCCOCC(O)CN (stereo not given) was run?
Its IC50 is 6.55 µM (inactive).

Which IC50 does the source give for CC(=O)[C@]1(O)Cc2c(O)c3c(c(O)c2[C@@H](O[C@H]2C[C@H](N)[C@H](O)[C@H](C)O2)C1)C(=O)c1ccccc1C3=O here?
The IC50 was 0.0208 µM.

For Cc1cccc(C)c1NC(=O)CN1CCN(CCCC(c2ccc(F)cc2)c2ccc(F)cc2)CC1, which IC50 is on record?
The IC50 was > 10 µM (inactive).

How did the IC50 turn out when CCCCCCCCCCCCCCCCCCOP(=O)([O-])OC1CC[N+](C)(C)CC1 was run?
The IC50 was > 10 µM (inactive).

Oc1c(I)cc(I)c2cccnc12 was tested. Which IC50 did it give?
The IC50 was 2.39 µM.

How did the IC50 turn out when O=C(OCCO)c1ccccc1O was run?
The IC50 was > 10 µM (inactive).

With COc1ccc(/C=C/C(=O)c2ccc(OC)cc2OC)cc1 as the compound, how does the IC50 read?
The IC50 was 6.66 µM (inactive).

For CCCCC(CC)COC(=O)C(C#N)=C(c1ccccc1)c1ccccc1 (stereo not given), which IC50 is on record?
The IC50 was > 10 µM (inactive).

Cc1nc2ccccc2n1Cc1ccc(Cl)cc1 was tested. Which IC50 did it give?
The IC50 was 7.38 µM (inactive).

NCCNc1ccc(NCCN)c2c1C(=O)c1ccncc1C2=O was tested. Which IC50 did it give?
The IC50 was 0.0465 µM.

How did the IC50 turn out when CC(C)CCCC(C)NCCC(C)C (stereo not given) was run?
The IC50 was > 10 µM (inactive).

With CNS(=O)(=O)CCc1ccc2[nH]cc(C3CCN(C)CC3)c2c1 as the compound, how does the IC50 read?
Its IC50 is > 10 µM (inactive).

Which IC50 does the source give for CCCOc1ccc2nc(NC(=O)OC)[nH]c2c1 here?
Its IC50 is 0.328 µM.

Cc1c(N)cccc1C(F)(F)F was tested. Which IC50 did it give?
The IC50 was > 10 µM (inactive).

With CCCCCCCCCCCCNCCNCCNCC(=O)O as the compound, how does the IC50 read?
Its IC50 is 6.04 µM (inactive).

With CCCCCCCC(=O)OCC(COC(=O)CCCCCCC)OC(=O)CCCCCCC as the compound, how does the IC50 read?
The IC50 was > 10 µM (inactive).

Which IC50 does the source give for CCN1CCC[C@H]1CNC(=O)c1c(OC)ccc(Br)c1OC here?
Its IC50 is > 10 µM (inactive).

For O=C(O)c1ccc2[nH]cc(CCCCN3CC=C(c4ccccc4)CC3)c2c1, which IC50 is on record?
Its IC50 is > 10 µM (inactive).

Which IC50 does the source give for Cc1cc(=O)c2c(O)c3c(O)cc(=O)c4c3c3c(cc(O)c1c23)C(C)(C)C=4O here?
The IC50 was 0.101 µM.

For Clc1ccc(CO/N=C(\Cn2ccnc2)c2ccc(Cl)cc2Cl)c(Cl)c1, which IC50 is on record?
The IC50 was > 10 µM (inactive).

How did the IC50 turn out when CC(=O)Nc1ccn(C2COC(COC(=O)c3ccccc3)O2)c(=O)n1 (stereo not given) was run?
Its IC50 is 2.33 µM.

For COc1c(C)c2c(c(O)c1C/C=C(\C)CCC(=O)OCCN1CCOCC1)C(=O)OC2, which IC50 is on record?
Its IC50 is 1.26 µM.

For COc1ccccc1N1CCN(CC(O)COc2cc(OC)c(OC)c(OC)c2)CC1 (stereo not given), which IC50 is on record?
Its IC50 is > 10 µM (inactive).

With COC(=O)C1=C(C)NC(C)=C(C(=O)OC(C)(C)CN(C)CCC(c2ccccc2)c2ccccc2)C1c1cccc([N+](=O)[O-])c1 (stereo not given) as the compound, how does the IC50 read?
The IC50 was > 10 µM (inactive).

Cc1cc2nc3ccc(=[N+](C)C)cc-3sc2cc1N was tested. Which IC50 did it give?
The IC50 was 2.45 µM.

Which IC50 does the source give for COC(=O)N[C@H](C(=O)N[C@@H](Cc1ccccc1)[C@@H](O)CN(Cc1ccc(-c2ccccn2)cc1)NC(=O)[C@@H](NC(=O)OC)C(C)(C)C)C(C)(C)C here?
The IC50 was > 10 µM (inactive).

O=C(CCN1CCC(c2ccccc2)C1)c1ccc2c(c1)OCCO2 (stereo not given) was tested. Which IC50 did it give?
The IC50 was > 10 µM (inactive).

How did the IC50 turn out when O=C(O)CCC(=O)OC[C@@H](NC(=O)C(Cl)Cl)[C@H](O)c1ccc([N+](=O)[O-])cc1 was run?
Its IC50 is > 10 µM (inactive).

For O=C(CCl)c1ccc(Cl)cc1Cl, which IC50 is on record?
Its IC50 is 2.49 µM.

O=C1c2c(O)ccc(O)c2C(=O)c2c(NCCNCCO)ccc(NCCNCCO)c21 was tested. Which IC50 did it give?
Its IC50 is 0.0044 µM.

With Oc1ccc(O)cc1 as the compound, how does the IC50 read?
Its IC50 is > 10 µM (inactive).

How did the IC50 turn out when CCCCc1oc2ccc(NS(C)(=O)=O)cc2c1C(=O)c1ccc(OCCCN(CCCC)CCCC)cc1 was run?
Its IC50 is 2.75 µM.

For Oc1c(Br)cc(Br)c2cccnc12, which IC50 is on record?
The IC50 was > 10 µM (inactive).

How did the IC50 turn out when CCCCCCCCCCCCCCCC(=O)OCC=C(C)C=CC=C(C)C=CC1=C(C)CCCC1(C)C was run?
Its IC50 is > 10 µM (inactive).

How did the IC50 turn out when CCOC(=O)[C@H](CCc1ccccc1)N[C@@H](C)C(=O)N1Cc2cc(OC)c(OC)cc2C[C@H]1C(=O)O was run?
Its IC50 is > 10 µM (inactive).

With COc1ccc2cc1Oc1ccc(cc1)C[C@H]1c3c(cc4c(c3Oc3cc5c(cc3OC)CCN(C)[C@@H]5C2)OCO4)CCN1C as the compound, how does the IC50 read?
Its IC50 is 3.02 µM.

How did the IC50 turn out when O=c1[nH]cc(F)c(=O)[nH]1 was run?
Its IC50 is > 10 µM (inactive).

Cc1nc2ccc(CN(C)c3ccc(C(=O)N[C@@H](CCC(=O)O)C(=O)O)s3)cc2c(=O)[nH]1 was tested. Which IC50 did it give?
Its IC50 is 0.354 µM.

CCCCCCNC(=O)n1cc(F)c(=O)[nH]c1=O was tested. Which IC50 did it give?
Its IC50 is 4.49 µM.

How did the IC50 turn out when CCCSS/C(CCO)=C(\C)N(C=O)Cc1cnc(C)nc1N was run?
The IC50 was > 10 µM (inactive).

How did the IC50 turn out when CN(C)C(=O)Oc1cccc([N+](C)(C)C)c1 was run?
Its IC50 is > 10 µM (inactive).

O=C1CC(c2ccc(Cl)cc2)CC(=O)N1 was tested. Which IC50 did it give?
Its IC50 is > 10 µM (inactive).

Which IC50 does the source give for O=c1[nH]c(=O)n([C@H]2C[C@H](O)[C@@H](CO)O2)cc1Br here?
Its IC50 is 3.85 µM.

With CCCCc1ccc2nc(NC(=O)OC)[nH]c2c1 as the compound, how does the IC50 read?
The IC50 was 0.053 µM.

COCCOC(=O)C1=C(C)NC(C)=C(C(=O)OC/C=C/c2ccccc2)C1c1cccc([N+](=O)[O-])c1 (stereo not given) was tested. Which IC50 did it give?
Its IC50 is 6.42 µM (inactive).

Which IC50 does the source give for COC(=O)c1ccccc1C(=O)OC here?
The IC50 was > 10 µM (inactive).

With COc1ccccc1OCCNCC(O)COc1cccc2[nH]c3ccccc3c12 (stereo not given) as the compound, how does the IC50 read?
The IC50 was > 10 µM (inactive).

COC(=O)C(Cl)C(=O)OC was tested. Which IC50 did it give?
Its IC50 is > 10 µM (inactive).

Which IC50 does the source give for O=C1c2ccccc2C(=O)C1C(=O)C(c1ccccc1)c1ccccc1 here?
The IC50 was > 10 µM (inactive).

With COc1ccc(/C=N/NC(=O)c2ccncc2)cc1OC as the compound, how does the IC50 read?
The IC50 was > 10 µM (inactive).

CC(=O)Oc1ccc(C2(c3ccc(OC(C)=O)cc3)Oc3ccccc3NC2=O)cc1 was tested. Which IC50 did it give?
Its IC50 is 2.27 µM.

How did the IC50 turn out when Clc1ccc(Nc2nnc(Cc3ccncc3)c3ccccc23)cc1 was run?
The IC50 was 0.111 µM.

Which IC50 does the source give for O=S(c1cc(Cl)cc(Cl)c1O)c1cc(Cl)cc(Cl)c1O here?
The IC50 was > 10 µM (inactive).

With CC[C@@]1(O)C(=O)OCc2c1cc1n(c2=O)Cc2c-1nc1ccccc1c2/C=N/OC(C)(C)C as the compound, how does the IC50 read?
The IC50 was 0.002 µM.
